Values of other authors in patent US10682361B2, “Sustained release bimatoprost, bimatoprost analogs, prostamides and prostaglandins for fat reduction” (ALLERGAN, INC., priority 2013, dated 2020).

Legend:
fat = conditions: topical administration
adipocytes = conditions: topical administration

## CCNC(=O)CCC/C=C\C[C@@H]1[C@@H](/C=C/[C@@H](O)CCc2ccccc2)[C@H](O)C[C@@H]1O [bimatoprost]
fat
  clinical fat reduction: clinical evidence of fat reduction
adipocytes
  effect on adipocytes in animal models: effectively prevent apidocyte formation and maturation and to atrophy adipocytes
